Format in all cases: in vivo
The subject of experiment [1] is Amaranthus retroflexus. Nature of the experiment: Pre-emergence herbicidal action, AMARE. The note with it: dosage 320 g/ha; for herbicidal activity AMARE: scored visually after 3 weeks vs untreated controls (100% = plants have died). The method, boiled down:
(§1)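 Herbicidal activity is expressed in percent, scored by eye after a 3-week greenhouse period, with 0% matching untreated plants and 100% meaning death. Compounds, as wettable powders or emulsion concentrates, are applied pre-emergence to the covering soil.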

The subject of experiment [2] is Echinochloa crus-galli. Nature of the experiment: Pre-emergence herbicidal action, ECHCG. The note with it: dosage 320 g/ha; for herbicidal activity ECHCG: scored visually after 3 weeks vs untreated controls (100% = plants have died). The method, boiled down: as §1
Experiment [3] deals with Alopecurus myosuroides. The experiment can be described thus: Post-emergence herbicidal action, ALOMY. The arrangement: key: % herbicidal action vs untreated; 100 = plants died, 0 = like control. An outline of the steps:
(§2)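 Greenhouse weeds grown in sandy loam were sprayed at the one-leaf stage, 2–3 weeks after sowing, with WP or EC formulations at 600–800 l/ha water plus 0.2% wetting agent. Damage scored visually about 3 weeks later, in percent against untreated controls (100% = plants dead).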

Experiment [4] has as its system Echinochloa crus-galli. Nature of the experiment: Post-emergence herbicidal action, ECHCG. The arrangement: key: % herbicidal action vs untreated; 100 = plants died, 0 = like control. An outline of the steps:
as §2

The subject of experiment [5] is Pharbitis purpurea. Nature of the experiment: Post-emergence herbicidal action, PHBPU. The method, boiled down: as §2
The subject of experiment [6] is Setaria viridis. The experiment can be described thus: Post-emergence herbicidal action, SETVI. The arrangement: key: % herbicidal action vs untreated; 100 = plants died, 0 = like control. An outline of the steps: as §2

Structures are written as SMILES.

`CCn1nnnc1NC(=O)c1ccc(C(F)(F)F)c(CS(C)(=O)=O)c1Cl` [Example 2-298]: in experiment [1], the “herbicidal activity AMARE” value is 100%. The “herbicidal activity ECHCG” value in experiment [2] was found to be 100%. In experiment [3] (Dosage 80 g/ha), the “herbicidal action ALOMY” value came out at 80. Moreover, the “herbicidal action ECHCG” value in experiment [4] (Dosage 80 g/ha) amounted to 90. For the same compound, the “herbicidal action PHBPU” value in experiment [5] (Dosage 80 g/ha) was found to be 90. Further, the “herbicidal action SETVI” value in experiment [6] (Dosage 80 g/ha) came to 90.
With `CCSCc1c(C(F)(F)F)ccc(C(=O)Nc2nnnn2CC)c1Cl` [Example 2-299], in experiment [1], the “herbicidal activity AMARE” value turned out to be 100%. Also, the “herbicidal activity ECHCG” value in experiment [2] is 100%. Besides, the “herbicidal action ALOMY” value in experiment [3] (post-emergence, dosage 80 g/ha) was 90%. In experiment [4] (post-emergence, dosage 80 g/ha), the “herbicidal action ECHCG” value is 90%. For the same compound, the “herbicidal action PHBPU” value in experiment [5] (post-emergence, dosage 80 g/ha) is on record as 90%. Besides, the “herbicidal action SETVI” value in experiment [6] (post-emergence, dosage 80 g/ha) stood at 100%.
For the compound `CCn1nnnc1NC(=O)c1ccc(C(F)(F)F)c(C[S+]([O-])CC)c1Cl` (stereo not drawn) [Example 2-300], in experiment [1], the “herbicidal activity AMARE” value came to 100%. Moreover, the “herbicidal activity ECHCG” value in experiment [2] is reported as 100%. For the same compound, the “herbicidal action ALOMY” value in experiment [3] (post-emergence, dosage 80 g/ha) was 90%. Further, in experiment [4] (post-emergence, dosage 80 g/ha), the “herbicidal action ECHCG” value stood at 100%. The “herbicidal action PHBPU” value in experiment [5] (post-emergence, dosage 80 g/ha) was 90%. The “herbicidal action SETVI” value in experiment [6] (post-emergence, dosage 80 g/ha) was 100%.
For the compound `CCn1nnnc1NC(=O)c1ccc(C(F)(F)F)c(CS(=O)(=O)CC)c1Cl` [Example 2-301], the “herbicidal action AMARE” value in experiment [1] was found to be 100%. The “herbicidal action ECHCG” value was determined as 100% in experiment [2] and 90 in experiment [4] (Dosage 80 g/ha). For the same compound, the “herbicidal action ALOMY” value in experiment [3] (Dosage 80 g/ha) was found to be 80. Moreover, the “herbicidal action PHBPU” value in experiment [5] (Dosage 80 g/ha) came to 90. Also, the “herbicidal action SETVI” value in experiment [6] (Dosage 80 g/ha) is 90.
Take `CCn1nnnc1NC(=O)c1ccc(C(F)(F)F)c(CSCCOC)c1Cl` [Example 2-305]: the “herbicidal activity AMARE” value in experiment [1] amounted to 100%. Moreover, the “herbicidal activity ECHCG” value in experiment [2] is recorded as 100%. The “herbicidal action ALOMY” value in experiment [3] (post-emergence, dosage 80 g/ha) is listed as 100%. Also, the “herbicidal action ECHCG” value in experiment [4] (post-emergence, dosage 80 g/ha) is reported as 100%. For the same compound, the “herbicidal action PHBPU” value in experiment [5] (post-emergence, dosage 80 g/ha) amounted to 100%. The “herbicidal action SETVI” value in experiment [6] (post-emergence, dosage 80 g/ha) amounted to 100%.
As for `CCn1nnnc1NC(=O)c1ccc(C(F)(F)F)c(CSCC(F)(F)F)c1Cl` [Example 2-311], in experiment [1], the “herbicidal activity AMARE” value is given as 100%. In addition, in experiment [2], the “herbicidal activity ECHCG” value amounted to 100%. In addition, in experiment [3] (Dosage 80 g/ha), the “herbicidal action ALOMY” value was found to be 90. Moreover, the “herbicidal action ECHCG” value in experiment [4] (Dosage 80 g/ha) was found to be 100. In experiment [5] (Dosage 80 g/ha), the “herbicidal action PHBPU” value came out at 90. In addition, the “herbicidal action SETVI” value in experiment [6] (Dosage 80 g/ha) is 100.
Regarding `CCn1nnnc1NC(=O)c1ccc(C(F)F)c(CSC)c1Cl` [Example 2-320], the “herbicidal activity AMARE” value in experiment [1] was found to be 100%. Also, the “herbicidal activity ECHCG” value in experiment [2] worked out at 100%. In addition, the “herbicidal action ALOMY” value in experiment [3] (Dosage 80 g/ha) was 100. Further, the “herbicidal action ECHCG” value in experiment [4] (Dosage 80 g/ha) is on record as 100. Also, in experiment [5] (Dosage 80 g/ha), the “herbicidal action PHBPU” value is given as 90. For the same compound, the “herbicidal action SETVI” value in experiment [6] (Dosage 80 g/ha) is 100.
For `CCn1nnnc1NC(=O)c1ccc(C(F)F)c(CS(C)(=O)=O)c1Cl` [Example 2-322], the “herbicidal activity AMARE” value in experiment [1] was determined as 100%. The “herbicidal activity ECHCG” value in experiment [2] worked out at 100%. For the same compound, in experiment [3] (post-emergence, dosage 80 g/ha), the “herbicidal action ALOMY” value was determined as 80%. The “herbicidal action ECHCG” value in experiment [4] (post-emergence, dosage 80 g/ha) was 100%. Besides, the “herbicidal action PHBPU” value in experiment [5] (post-emergence, dosage 80 g/ha) is given as 90%. The “herbicidal action SETVI” value in experiment [6] (post-emergence, dosage 80 g/ha) was found to be 100%.
`CCSCc1c(C(F)F)ccc(C(=O)Nc2nnnn2CC)c1Cl` [Example 2-323]: the “herbicidal activity AMARE” value in experiment [1] is 100%. Also, the “herbicidal activity ECHCG” value in experiment [2] was 100%. Further, the “herbicidal action ALOMY” value in experiment [3] (post-emergence, dosage 80 g/ha) came out at 80%. The “herbicidal action ECHCG” value in experiment [4] (post-emergence, dosage 80 g/ha) is on record as 100%. In experiment [5] (post-emergence, dosage 80 g/ha), the “herbicidal action PHBPU” value was 90%. For the same compound, the “herbicidal action SETVI” value in experiment [6] (post-emergence, dosage 80 g/ha) stood at 100%.
In the case of `CCn1nnnc1NC(=O)c1ccc(C(F)F)c(C[S+]([O-])CC)c1Cl` (stereo not drawn) [Example 2-324], the “herbicidal activity AMARE” value in experiment [1] is recorded as 100%. Moreover, in experiment [2], the “herbicidal activity ECHCG” value came to 100%. Moreover, in experiment [3] (post-emergence, dosage 80 g/ha), the “herbicidal action ALOMY” value is 90%. In addition, in experiment [4] (post-emergence, dosage 80 g/ha), the “herbicidal action ECHCG” value is recorded as 100%. Also, the “herbicidal action PHBPU” value in experiment [5] (post-emergence, dosage 80 g/ha) was 100%. Moreover, the “herbicidal action SETVI” value in experiment [6] (post-emergence, dosage 80 g/ha) was found to be 90%.

The record behind these values is US12492173B2, “Herbicidal substituted N-tetrazolyl aryl carboxamides” (Bayer Aktiengesellschaft, priority 2019, dated 2025).
